Measurements from patent US20240285497A1, “METHOD FOR EVALUATING AN ABILITY OF A TEST SAMPLE TO TRIGGER A FOREIGN BODY REACTION IN THE SKIN, A METHOD FOR SCREENING A SUBSTANCE HAVING AN ABILITY TO INHIBIT A FOREIGN BODY REACTION IN THE SKIN, AND AN AGENT FOR INHIBITING A FOREIGN BODY REACTION IN THE SKIN” (priority 2021, published 2024).

How the values were obtained:
[1] = test system: xenobiotic responsive element (XRE); experiment: Evaluation of ability to trigger a foreign body reaction using XRE-NLuc::HaCaT reporter cells (NLuc luminescence per viable cell); type: cell-based, human
Protocol: First, XRE-NLuc::HaCaT cells were suspended in a DMEM medium at the density of 1×10^5 cell/mL, and 100 μL of the thus obtained suspension was added to each well of white 96 well plates (Thermo Fisher Scientific, MA, U.S.A.; Catalogue No.: 136102) so that the number of the cells in each well was 10,000 cells/well. In accordance with a conventional method, the cells were incubated at 37° C., 5% CO2 for 24 hours. Thereafter, the DMEM medium was removed, and 100 μL of a new DMEM medium containing FICZ (6-Formylindolo[3,2-b]carbazole; CAS RN: 172922-91-7) as a test sample at a predetermined concentration was added, followed by further incubation for 24 hours at 37° C., 5% CO2. FICZ is known as a substance that triggers a foreign body reaction in which XRE is involved. Meanwhile, negative controls were prepared by adding 100 μL of a DMEM medium containing no FICZ instead of the DMEM medium containing FICZ, which were also incubated for 24 hours at 37° C., 5% CO2.
After the above-described incubation for 24 hours, the number of cells in each well was counted by a colorimetric method based on the degradation of tetrazolium salt (WST-1) by mitochondrial dehydrogenase in viable cells. Specifically, 3 μL of Premix WST-1 (Product Name “Premix WST-1 Cell Proliferation Assay System”; Takara Bio Inc., Shiga, Japan; Catalogue No.: MK400) was added to each well of 96 well plates, and then the cells were cultured for 1 hour at 37° C., 5% CO2. Thereafter, 93 μL of cell culture supernatant was removed from each well to measure the absorbance of the supernatant in each well. The removed supernatants were transferred to transparent 96 well plates, and then the absorbance at 450 nm (A450) and, as a reference wavelength, the absorbance at 670 nm (A670) were measured using iMark microplate reader (Bio-Rad; Catalogue No.: 168-1130JA). A value (A450-A670) was obtained by subtracting the absorbance at 670 nm (A670) from the absorbance at 450 nm (A450). The relative viable cell count (%) was expressed as a relative value with the value (A450-A670) obtained for the negative control as 100%.
Meanwhile, the expression level of the reporter protein was measured using samples left on the white 96-well plates after removing the supernatants for the viable cell count measurement. Briefly, 7 μL of Nano-Glo Luciferase Assay System (Promega; Catalogue No.: N110) was added to each well of the white 96-well plate. After 3 mins, the luminescence intensity obtained from the reporter protein produced by XRE-NLuc::HaCaT cells in each well was measured using GloMax Navigator Microplate Luminometer (Promega; Catalogue No.: GM2000). The obtained luminescence intensities were divided by the relative viable cell counts obtained by the above-described colorimetric method to obtain the expression level of the reporter protein (luminescence intensity) per unit number of viable cells.
In FIG. 3, the luminescence intensity per unit number of viable cells obtained from XRE-NLuc::HaCaT cells incubated with each of the DMEM medium containing FICZ at different concentrations was shown as a relative value, with the luminescence intensity per unit number of viable cells obtained for the negative control set to 1. […] In the figure, “*” and “**” indicate statistically significant differences (p<0.05 and p<0.01, respectively) from the negative control (“FICZ Concentration 0 nM” in FIG. 3).
The ability of each test sample to trigger a foreign body reaction was evaluated using XRE-NLuc::HaCaT cells in the same manner as in Experiment 1-2, except that I3C (Indole-3-carbinol, CAS RN: 700-06-1), ITE (2-(1′H-indole-3′-carbonyl)-thiazole-4-carboxylic acid methyl ester, CAS RN: 448906-42-1), and Indirubin (CAS RN: 479-41-4) were used instead of FICZ as test samples and the amount of each test sample added to the DMEM medium was appropriately changed.

[2] = test system: xenobiotic responsive element (XRE); experiment: Screening: inhibition of FICZ-triggered reporter protein expression in XRE-NLuc::HaCaT cells; type: cell-based, human; conditions: FICZ 5,000 nM, 24 hours
Protocol: First, in the same manner as in Experiment 1-2, XRE-NLuc::HaCaT cells were suspended in a DMEM medium at the density of 1×10^5 cell/mL, and 100 μL of the thus obtained suspension was added to each well of white 96-well plates (Thermo Fisher Scientific, MA, U.S.A.; Catalogue No.: 136102) so that a number of the cells in each well was 10,000 cells/well. In accordance with the conventional method, the cells were incubated for 24 hours at 37° C. and 5% CO2. Thereafter, the DMEM medium was removed, and 100 μL of a new DMEM medium containing […] of FICZ, which was confirmed to activate the expression of the reporter protein in Experiment 1-2, and a candidate substance at a predetermined concentration. Meanwhile, reference samples were also prepared by adding 100 μL of a DMEM medium containing 5,000 nM of FICZ but not containing candidate substances. In this experiment, 5-hydroxy-4-phenyl-2(5H)butenolide (hereinafter also referred to as “Fraglide-1” or “FG1”) and, as a positive control, cinnamaldehyde, which is known to have an effect of inhibiting a foreign body reaction in which a xenobiotic responsive element (XRE) is involved, were used as test substances. After incubation for 24 hours at 37° C. and 5% CO2, the expression level of the reporter protein (luminescence intensity) and the viable cell count were measured in accordance with the method described in Experiment 1-2, and the expression of the reporter protein per unit number of viable cells was obtained. The inhibition rate (Inhibition (%)) of the expression of the reporter protein exerted by each candidate substance was calculated in accordance with the following formula.
In the above formula, (Reporter Expression)FICZ indicates the expression of the reporter protein per unit number of viable cells obtained from the reference samples: i.e., the cells incubated in the medium containing 5,000 nM of FICZ but not containing candidate substances. Meanwhile, (Reporter Expression)FICZ+TEST SAMPLE indicates the expression of the reporter protein per unit number of viable cells obtained from the cells incubated in the medium containing 5,000 nM of FICZ and a candidate substance. The results shown in FIG. 6 were the mean obtained from three independent experiments. The error bars represent the standard error (SE).

Row | Compound | luminescence intensity (reporter protein expression) per unit number of viable cells relative to negative control ([1]; 4 nM FICZ, 24 hours, XRE-NLuc::HaCaT cells) | luminescence intensity from XRE-NLuc::HaCaT cells, dependence on concentration ([1]; FICZ at different concentrations, 24 hours) | EC50 ([1]; XRE-NLuc::HaCaT cells, reporter protein expression) [nM] | Present Experiment Maximum Effective concentration Max. Induction ([1]; XRE-NLuc::HaCaT cells, concentration at which reporter expression was maximized) [µM] | Inhibition (%) of expression of the reporter protein triggered by FICZ ([2]; 12.5 μM test substance) [%] | Inhibition (%) of expression of the reporter protein triggered by FICZ ([2]; 25 μM test substance) [%] | Inhibition (%) of expression of the reporter protein triggered by FICZ ([2]; 50 μM test substance) [%]
1 | 6-formylindolo[3,2-b] carbazole [FICZ] | about three times higher | increased along with the concentration of FICZ | 12 | 0.5 |  |  | 
2 | O=C1C=C(c2ccccc2)C(O)O1 (stereo not shown) [Fraglide-1, 5-hydroxy-4-phenyl-2(5H)butenolide] |  |  |  |  | 58 | 68 | 83
